Key:
[1] = target: T1, human kappa opioid receptor (Homo sapiens, UniProt P41145); assay: Binding assay for opioid receptor transfected cell membrane in 96-well format (filtration), kappa opioid receptor; settings: HEK293S KOR cell membranes, radioligand 125I-(D-Pro10)-Dynorphin A (1-11), control inhibitor
T1 construct: expressed in transfected cells; host or cells: HEK293S KOR cells (membrane preparations)
From the text: (§1) Compounds of the invention, prepared using the general methods described above, may be tested for their ability to bind to the human kappa opioid receptor using standard procedures well known to those skilled in the art.
Binding Assay for Opioid Receptor Transfected Cell Membrane in 96-Well Format
Principle: The procedures describe how to perform and interpret receptor binding experiments designed to determine the affinities of new compounds for μ, δ and κ receptors. The total and nonspecific binding are determined in the absence and presence of selective opioid receptor radiolabeled ligand.
Procedure for Kappa Opioid Receptor:
The total and non-specific binding are determined in absence and presence of 1 μM of Asimadoline and added with the multichannel pipett in respectively well of the 96 well plate (see table 1).
The radioligand 125I-(D-pro)-Dynorphin A (1-1 1) is added containing 30 000-50 000 CPM per well.
Membranes are thawed at room temperature and diluted in assay buffer to the appropriate amount of protein, homogenized 5-10 times in glas/glas, and added to the 96 well plate.
Vortex the plate 1 minute, incubate at room temperature for 60-75 minutes, vortex 1 minute and the reaction was terminated by rapid filtration (Micro96 Harvester, Skatron Instruments, Norway) to separate bound from free ligand. […]

[2] = target: T1, human kappa opioid receptor; assay: SPA binding assay for kappa-opioid receptor transfected cell membrane in 96-well format; settings: HEK293S KOR cell membranes, radioligand 125I-(D-Pro10)-Dynorphin A (1-11), control inhibitor
From the text: as §1
SPA Binding Assay for Kappa-Opioid Receptor Transfected Cell Membrane in 96-Well Format
Principle: Membranes containing the kappa opioid receptor are coupled to SPA beads, the ability of tested compounds to dislocate a radio ligand the protein agonist Dynorphin. (^125I-(D-Pro^10)-Dynorphin A (1-11)) are determined. Only radioaktivity in close proximity to the beads, that is bound to membranes attached to beads, will be measured.
Procedure: The total and non-specific binding are determined in absence and presence of 0.5 μM of Dynorphin, radioligand is added containing 15 000-20 000 CPM per well.
The membrane and SPA beads precouples over night (18-22 hours) in assay buffer at room temperature on a shaking platform, with rotary movement. The mixture of membrane and beads are pipetted together with the assay-buffer, agents and the radioligand into a 96-well microtiterplate.
The plate is incubated for 1 hours at room temperature, and counted in a WALLAC TRILUX MicroBeta.
Percentage inhibition is calculated for each well from the two standards, 0% and 100% inhibition.
The binding buffer, 50 mM Tris, 3 mM MgCl2, stored at +4° C. […]

T1 sequence (P41145 whole entry): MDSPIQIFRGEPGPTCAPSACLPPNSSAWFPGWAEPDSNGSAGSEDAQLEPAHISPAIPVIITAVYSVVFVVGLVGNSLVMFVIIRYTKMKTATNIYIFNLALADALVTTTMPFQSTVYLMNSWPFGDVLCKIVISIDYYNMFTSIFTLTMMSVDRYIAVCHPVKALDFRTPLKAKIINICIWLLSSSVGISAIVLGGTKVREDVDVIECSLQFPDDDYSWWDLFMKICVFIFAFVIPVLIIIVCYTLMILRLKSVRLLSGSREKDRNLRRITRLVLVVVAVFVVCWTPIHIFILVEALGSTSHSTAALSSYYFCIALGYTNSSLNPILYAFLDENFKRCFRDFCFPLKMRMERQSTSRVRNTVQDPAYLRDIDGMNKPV

CN(C(=O)C(c1ccccc1)c1ccccc1)[C@H](CN1CC[C@H](O)C1)c1ccccc1 [Asimadoline]
IC50 [1]: 4 to 10 nM | IC50 [2]: ~4 nM

— patent publication US20040186104A1, “Novel pyridinone and related heterocyclic derivatives” (priority 2001, published 2004)
